Assay results: US20100298144A1, “HERBICIDAL COMBINATION” (BAYER CROPSCIENCE AG, priority 2008, published 2010)

Test system: Polygonum convolvulus
Assay: Post-emergence action against weeds, greenhouse pot test, visual scoring
Assay type: in vivo
Details: 11 days after application, 0%=no control, 100%=complete control
Protocol: Seeds or rhizome pieces of monocotyledonous and dicotyledonous weeds were placed in sandy loam in plastic pots, covered with soil and cultivated in a greenhouse under good growth conditions. Three weeks after sowing, the test plants were treated at the 2-4 leaf stage. The compounds according to the invention, formulated as wettable powders or as emulsion concentrates, were sprayed onto the green parts of the plants at various dosages using a water application rate of from 100 to 800 I/ha (converted). After the test plants had been left to stand in the greenhouse for 10 to 28 days under optimum growth conditions, the effect of the preparations was scored visually in comparison to untreated controls.
0%=no control 100%=complete control

sodium salt of 2-iodo-N-[(4-methoxy-6-methyl-1,3,5-triazin-2-yl)carbamoyl]benzenesulfonamide [Compound A-2]
Polygonum convolvulus Control in % (Table 1, 2.5 g of ai/ha): 10%
Polygonum convolvulus Control in % (Table 2, 2.5 g of ai/ha): 20%

glyphosate-ammonium [Compound B1-15]
Polygonum convolvulus Control in % (Table 2, 360 g of ai/ha): 55%

CP(=O)(O)CCC(N)C(=O)O (stereo not shown) [Compound B1-8, glufosinate-ammonium]
Polygonum convolvulus Control in % (Table 1, 150 g of ai/ha): 20%
